Experiment [1] deals with T1, 5-hydroxytryptamine (5-HT) reuptake sites (Rattus norvegicus, UniProt P31652).
T1 construct: Frontal cortical tissue from the brains of male Sprague-Dawley rats; from tissue; host or cells: rat brain frontal cortex (crude synaptosomes in A2, washed membranes in A5)
In words: inhibition of [3H]5-HT uptake in vitro, frontal cortical synaptosomes. The experiment is classed as biochemical. The method, then: Frontal cortical tissue from the brains of male Sprague-Dawley rats (Charles River; weight range 150-250 g) was homogenised in ice-cold 0.32M sucrose (1:10 w/v) using a motor driven teflon pestle (difference in diameter between mortar and pestle 0.5 mm). Nuclei and cell debris were removed by centrifugation at 1,500 g at 4° C. for 10 minutes. The pellet (P1) was discarded and the supernatant centrifuged at 28,000 g at 4° C. for 10 minutes. The crude synaptosomal pellet (P2) was resuspended in Krebs-Henseleit buffer (equivalent to 8.3 mg wet weight of tissue/ml).
Crude synaptosomes were incubated in a shaking water bath at 37° C. for 15 minutes. Aliquots (150 μl; equivalent to 1.25 mg wet weight of tissue/tube) were then added to tubes containing 275 μl of Krebs-Henseleit buffer and 50 μl of Krebs-Henseleit buffer (total uptake) or 50 μl of test compound (at 10 concentrations ranging from 10^-11 -10^-4 M) or 50 μl of zimeldine (10^-5 M; non-specific uptake). Uptake was initiated by the addition of 25 μl of freshly prepared [^3 H]5-HT (2 nM), followed by vortexing, and was continued for 5 minutes at 37° C. in the shaking water bath. Uptake was terminated by filtration under vacuum through Skatron 11734 filters using a Skatron cell harvester. Filters were then washed with 8 ml ice-cold saline. The scored filter paper discs were punched into vials, scintillation fluid added and radioactivity determined by liquid scintillation counting.
(§1) For each of the dopamine (DA) uptake, 5-hydroxytryptamine (5-HT) uptake and noradrenaline (NA) uptake inhibition tests, the percentage inhibition of specific uptake of the tritiated ligand was calculated for each concentration of test compound. Inhibition curves were then produced. The concentration which gave 50% inhibition of specific uptake (IC50) was obtained from the curve. The inhibition constant (Ki) was then calculated using the formula [formula]
(§2) in which [ligand] is the concentration of tritiated ligand used and Km is the affinity of the uptake site for the ligand. […] Values are means of three independent determinations unless otherwise indicated.

Experiment [2] has as its target T2, noradrenaline (NA) reuptake sites (Rattus norvegicus, UniProt Q63380).
T2 construct: Frontal cortical tissue from the brains of male Sprague-Dawley rats; from tissue; host or cells: rat brain frontal cortex (crude synaptosomes in A3, washed membranes in A6)
In words: inhibition of [3H]noradrenaline uptake in vitro, frontal cortical synaptosomes. The experiment is classed as biochemical. As to conditions: [3H]noradrenaline 10 nM, means of three independent determinations. The method, then: Frontal cortical tissue from the brains of male Sprague-Dawley rats (Charles River; weight range 150-250 g) was homogenised in ice-cold 0.32M sucrose (1:10 w/v) using a motor driven teflon pestle (difference in diameter between mortar and pestle 0.5 mm). Nuclei and cell debris were removed by centrifugation at 1,500 g at 4° C. for 10 minutes. The pellet (P1) was discarded and the supernatant centrifuged at 28,000 g at 4° C. for 10 minutes. The crude synaptosomal pellet (P2) was resuspended in Krebs-Physiological buffer (equivalent to 16.7 mg wet weight of tissue/ml).
Crude synaptosomes were incubated in a shaking water bath at 37° C. for 15 minutes. Aliquots (150 μl; equivalent to 2.5 mg wet weight of tissue/tube) were then added to tubes containing 275 μl of Krebs-Physiological buffer and 50 μl of Krebs-Physiological buffer (total uptake) or 50 μl of test compound (at 10 concentrations ranging from […]) or 50 μl of desipramine (10^-5 M; non-specific uptake). Uptake was initiated by the addition of 25 μl of freshly prepared [^3 H]noradrenaline (10 nM), followed by vortexing and was continued for 5 minutes at 37° C. in the shaking water bath. Uptake was terminated by filtration under vacuum through Whatman GF/B filters using a Brandel cell harvester. Filters were then washed with 8 ml ice-cold saline. The scored filter paper discs were placed into vials, scintillation fluid added and radioactivity determined by liquid scintillation counting.
as §1, §2

Experiment [3] addresses T3, dopamine (DA) reuptake sites (Rattus norvegicus, UniProt P23977).
T3 construct: Striatal tissue from the brains of male Charles River rats weighing 150-250 g; from tissue; host or cells: rat brain striatum (crude synaptosomes in A1, washed membranes in A4)
Description: inhibition of [3H]dopamine uptake in vitro, striatal synaptosomes. The experiment is classed as biochemical. The note with it: [3H]dopamine 2.5 nM, means of three independent determinations. The method, then: Striatal tissue from the brains of male Charles River rats weighing 150-250 g was homogenised in ice-cold 0.32M sucrose (1:10 w/v) using a motor driven teflon pestle (difference in diameter between mortar and pestle 0.5 mm). Nuclei and cell debris were removed by centrifugation at 1,500 g at 4° C. for 10 minutes. The pellet (P1) was discarded and the supernatant centrifuged at 28,000 g at 4° C. for 10 minutes. The crude synaptosomal pellet (P2) was resuspended in Krebs-Henseleit buffer (equivalent to 4.2 mg wet weight of tissue/ml).
Crude synaptosomes were incubated in a shaking water bath at 37° C. for 15 minutes. Aliquots (150 μl; equivalent to 0.625 mg wet weight of tissue/tube) were then added to tubes containing 275 μl of Krebs-Henseleit buffer and 50 μl of Krebs-Henseleit buffer (total uptake) or 50 μl of test compound (10 concentrations ranging from 10^-11 -10^-4 M or 50 μl of GBR 12909 (10^-5 M; non-specific uptake). Uptake was initiated by the addition of 25 μl of freshly prepared [^3 H]dopamine (2.5 nM), followed by vortexing and was continued for 5 minutes at 37° C. in the shaking water bath.
Uptake was terminated by filtration under vacuum through Skatron 11735 filters using a Skatron cell harvester. Filters were then washed with 8 ml ice-cold saline. The scored filter paper discs were punched into vials, scintillation fluid added and radioactivity determined by liquid scintillation counting.
as §1, §2

The target in experiment [4] is T3, dopamine (DA) reuptake sites. Description: displacement of [3H]GBR 12935 from dopamine reuptake sites, striatal membranes. The experiment is classed as binding. The note with it: 10^-6 M test compound, [3H]GBR 12935 1 nM, one test only, read-out: DA uptake (% displacement of specific binding of tritiated ligand). In a few lines: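 Rat striatal membranes (male rats, 150-250 g) incubated 90 min at 4 °C with 1 nM [3H]GBR 12935 in 50 mM Tris-HCl pH 7.4, 200 mM NaCl, 5 mM KCl; non-specific binding with 1 μM mazindol. Filtration, scintillation counting; value is % displacement of specific binding at 10^-6 M, single test; IA means <50%.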
A general note: In a radioligand displacement assay an active substance lowers the binding of a labelled ligand.

Experiment [5] deals with T1, 5-hydroxytryptamine (5-HT) reuptake sites. In words: displacement of [3H]paroxetine from 5-HT reuptake sites, frontal cortical membranes. The experiment is classed as binding. As to conditions: 10^-6 M test compound, [3H]paroxetine 30 pM, one test only, read-out: 5-HT uptake (% displacement of specific binding of tritiated ligand). In a few lines: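 Rat frontal cortex membranes (male, 150-250 g; 2 mg wet tissue/tube) in 50 mM Tris-HCl pH 7.5 with 120 mM NaCl and 5 mM KCl, incubated 2 h at 22 °C with 30 pM [3H]paroxetine and compound at 10^-6 M. Citalopram 1 μM defined non-specific binding; values are % displacement of specific binding from a single test, filtration and scintillation counting.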

The target of experiment [6] is T2, noradrenaline (NA) reuptake sites. Description: displacement of [3H]nisoxetine from noradrenaline reuptake sites, frontal cortical membranes. As to conditions: 10^-6 M test compound, [3H]nisoxetine 0.6 nM, one test only, read-out: NA uptake (% displacement of specific binding of tritiated ligand). Put shortly: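 Washed male rat frontal cortex membranes in 50 mM Tris pH 7.4, 300 mM NaCl, 5 mM KCl, incubated 4 h at 4 °C with 0.6 nM [3H]nisoxetine and test compound at 10^-6 M; mazindol (1 μM) defined non-specific binding. Filtration, scintillation counting; % displacement of specific binding, single test.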

Counter-ions that a name gives are not always drawn. Like-named read-outs stand apart in the source and are kept apart here.

T3 sequence (P23977 whole entry): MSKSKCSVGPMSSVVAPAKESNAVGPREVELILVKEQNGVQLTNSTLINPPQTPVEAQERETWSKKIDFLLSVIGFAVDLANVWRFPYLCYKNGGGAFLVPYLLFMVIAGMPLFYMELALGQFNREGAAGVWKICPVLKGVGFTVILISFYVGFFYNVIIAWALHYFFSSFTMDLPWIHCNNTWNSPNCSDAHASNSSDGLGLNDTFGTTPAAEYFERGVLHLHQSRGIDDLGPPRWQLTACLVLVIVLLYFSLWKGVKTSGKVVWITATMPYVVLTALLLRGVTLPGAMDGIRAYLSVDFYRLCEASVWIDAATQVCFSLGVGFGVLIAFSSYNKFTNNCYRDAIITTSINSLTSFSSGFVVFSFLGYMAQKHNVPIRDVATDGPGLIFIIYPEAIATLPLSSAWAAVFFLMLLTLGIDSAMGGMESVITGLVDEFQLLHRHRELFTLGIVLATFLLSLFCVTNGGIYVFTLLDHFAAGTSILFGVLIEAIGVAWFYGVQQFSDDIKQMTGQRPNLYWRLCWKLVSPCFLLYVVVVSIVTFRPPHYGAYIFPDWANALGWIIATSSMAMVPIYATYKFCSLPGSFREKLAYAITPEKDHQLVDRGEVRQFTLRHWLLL
T1 sequence (P31652 whole entry): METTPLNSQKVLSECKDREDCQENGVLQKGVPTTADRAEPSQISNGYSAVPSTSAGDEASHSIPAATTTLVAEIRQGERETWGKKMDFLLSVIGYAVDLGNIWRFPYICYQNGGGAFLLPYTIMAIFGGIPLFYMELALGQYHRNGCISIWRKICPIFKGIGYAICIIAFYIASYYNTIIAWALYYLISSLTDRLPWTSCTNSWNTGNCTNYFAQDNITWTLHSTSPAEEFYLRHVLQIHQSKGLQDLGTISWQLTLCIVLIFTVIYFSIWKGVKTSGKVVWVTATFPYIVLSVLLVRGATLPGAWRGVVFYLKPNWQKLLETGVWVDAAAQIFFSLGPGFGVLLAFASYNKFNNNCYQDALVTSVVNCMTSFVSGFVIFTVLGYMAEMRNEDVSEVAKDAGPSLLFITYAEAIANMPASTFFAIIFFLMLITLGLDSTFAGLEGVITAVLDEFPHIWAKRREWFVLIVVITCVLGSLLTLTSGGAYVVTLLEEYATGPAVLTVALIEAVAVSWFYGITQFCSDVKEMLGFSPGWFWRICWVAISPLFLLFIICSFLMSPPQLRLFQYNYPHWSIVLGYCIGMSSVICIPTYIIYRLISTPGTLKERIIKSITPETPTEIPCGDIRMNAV
T2 sequence (Q63380 1-617): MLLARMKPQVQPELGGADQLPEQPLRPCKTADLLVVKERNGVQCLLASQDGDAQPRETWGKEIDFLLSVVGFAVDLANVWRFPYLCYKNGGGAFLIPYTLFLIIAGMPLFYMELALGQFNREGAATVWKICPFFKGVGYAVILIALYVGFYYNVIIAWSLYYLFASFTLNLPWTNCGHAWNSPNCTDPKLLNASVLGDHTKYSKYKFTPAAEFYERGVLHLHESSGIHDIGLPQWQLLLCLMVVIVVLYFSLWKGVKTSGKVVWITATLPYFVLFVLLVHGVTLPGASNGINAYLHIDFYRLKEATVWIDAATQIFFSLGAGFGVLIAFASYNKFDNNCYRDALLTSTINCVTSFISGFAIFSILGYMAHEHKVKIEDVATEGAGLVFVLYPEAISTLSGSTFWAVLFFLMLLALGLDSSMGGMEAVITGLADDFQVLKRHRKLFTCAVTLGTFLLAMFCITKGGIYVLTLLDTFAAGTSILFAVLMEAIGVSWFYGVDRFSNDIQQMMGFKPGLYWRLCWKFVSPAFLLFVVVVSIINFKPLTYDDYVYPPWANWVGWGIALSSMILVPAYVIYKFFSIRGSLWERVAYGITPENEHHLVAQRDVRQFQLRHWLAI

As to `Clc1ccc(C2(C3=CSC4=NCCN34)CCC2)cc1Cl` [Example 1, 3-[1-(3,4-dichlorophenyl)cyclobuty]-5,6-dihydroimidazo[2,1-b]thiazole hydrobromide], the Ki is 0.12 µM in experiment [1] (rat frontal cortical synaptosomes, [3H]5-HT 2 nM, means of three independent determinations, read-out: 5-HT uptake (Ki)); 0.034 µM in experiment [2]; 0.0092 µM in experiment [3].

With `Clc1ccc(C2(C3=CSC4=NCCCN34)CCC2)cc1` [Example 2, 3-[1-(4-chlorophenyl)cyclobutyl]-6,7-dihydro-5H-thiazolo[3,2-a]pyrimidine hydrobromide], the Ki in experiment [1] stood at 0.782 µM; in experiment [2] it was 0.261 µM; in experiment [3], 0.104 µM.

Turning to `Clc1ccc(C2(C3=CSC4=NCCCN34)CCC2)cc1Cl` [Example 4, 3-[1-(3,4-dichlorophenyl)cyclobutyl]-6,7-dihydro-5H-thiazolo[3,2-a]pyrimidine hydrobromide], the Ki in experiment [1] is 0.137 µM; in experiment [2], 0.015 µM; in experiment [3], 0.0095 µM.

Turning to `C1=C(C2(c3ccc4ccccc4c3)CCC2)N2CCN=C2S1` [Example 5, 3-[1-(2-naphthyl)cyclobutyl]-5,6-dihydroimidazo[2,1-b]thiazole hydrobromide], the Ki in experiment [1] worked out at 0.025 µM; in experiment [2], 0.0044 µM; in experiment [3], 0.0059 µM.

For `Clc1ccc(C2(C3=CSC4=NCCN34)CCC2)cc1` [Example 3, 3-[1-(4-chlorophenyl)cyclobutyl]-5,6-dihydroimidazo-[2,1-b]thiazole hydrobromide], the inhibition constant Ki in experiment [1] was 0.795 µM; in experiment [2], 0.022 µM; in experiment [3], 0.079 µM.

Regarding `COc1ccc(CCN=c2scc(C3(c4ccccc4)CCCCC3)n2CCc2ccc(OC)c(OC)c2)cc1OC` [Example 68, 3-(3,4-Dimethoxyphenethyl)-2-(3,4-dimethoxyphenethylimino)-4-(1-phenylcyclohexyl)-2,3-dihydrothiazole hydrobromide], the inhibition at 1 µM was 65% in experiment [4], below 50% in experiment [5] and below 50% in experiment [6].

Regarding `Brc1ccc(C2(C3=CSC4=NCCN34)CCC2)cc1` [Example 70, 3-[1-(4-Bromophenyl)cyclobutyl]-5,6-dihydroimidazo[2,1-b]thiazole hydrobromide], the results for the inhibition at 1 µM in experiment [4], in experiment [5] and in experiment [6] were 80%, below 50% and 52%, respectively.

On to `CCN=c1scc(C2(c3ccc(Cl)c(Cl)c3)CCC2)n1CC` [Example 15, 4-[1-(3,4-Dichlorophenyl)cyclobutyl]-3-ethyl-2-ethylimino-2,3-dihydrothiazole hydrobromide], for which the inhibition at 1 µM in experiment [4] stood at 115%; in experiment [5] it was 102%; in experiment [6] it was 99%.

`CCN=c1scc(C2(c3ccc4ccccc4c3)CCC2)n1CC` [Example 37, 3-Ethyl-2-ethylimino-4-[1-(2-naphthyl)cyclobutyl]-2,3-dihydrothiazole hydrobromide]: the inhibition at 1 µM in experiment [4] turned out to be 110%; in experiment [5], 101%; in experiment [6] it was 102%.

For the compound `Clc1ccc(C2(C3=C(Cc4ccccc4)SC4=NCCN43)CCC2)cc1` [Example 7, 2-benzyl-3-[1-(4-chlorophenyl)cyclobutyl]-5,6-dihydroimidazo[2,1-b]-thiazole hydrobromide], the inhibition at 1 µM is 69% in experiment [4], 85% in experiment [5] and below 50% in experiment [6].

As to `CCOc1ccc(N=c2scc(C3(c4ccc5ccccc5c4)CCC3)n2-c2ccc(OCC)cc2)cc1` [Example 54, 3-(4-Ethoxyphenyl)-2-(4-ethoxyphenylimino)-4-[1-(2-naphthyl)cyclobutyl]-2,3-dihydrothiazole hydrobromide], the inhibition at 1 µM in experiment [4] was 69%; in experiment [5], below 50%; in experiment [6], below 50%.

For `COCCC1=C(C2(c3ccc(Cl)c(Cl)c3)CCC2)N2CCN=C2S1` [Example 8, 3-[1-(3,4-dichlorophenyl)cyclobutyl]-2-(2-methoxyethyl)-5,6-dihydroimidazo[2,1-b]-thiazole hydrobromide], the values for the inhibition at 1 µM in experiment [4], in experiment [5] and in experiment [6] were below 50%, 62% and below 50%, respectively.

Take `Cc1ccccc1N=c1scc(C2(c3ccc4ccccc4c3)CCC2)n1-c1ccccc1C` [Example 51, 4-[1-(2-Naphthyl)cyclobutyl)-3-(o-tolyl)-2-(o-tolylimino)-2,3-dihydrothiazole hydrobromide]: the inhibition at 1 µM was 69% in experiment [4], 54% in experiment [5] and below 50% in experiment [6].

As a reminder, the Ki is a measure of affinity in units of concentration, obtained from inhibition or displacement.
